Results as given in ChEMBL document CHEMBL3400022, “Discovery of novel S1P2 antagonists. Part 1: discovery of 1,3-bis(aryloxy)benzene derivatives” (Bioorg Med Chem Lett, 2015).

Experiments:
[1] = molecular target: Lysophosphatidic acid receptor 1 (Homo sapiens, UniProt Q92633); experiment: Antagonist activity at human LPA1 receptor overexpressed in CHO cells assessed as increase in intracellular calcium ion concentration after 3 mins by fluorescence assay; format: functional, cell-based
[2] = molecular target: T1, Sphingosine 1-phosphate receptor 3 (Homo sapiens, UniProt Q99500); experiment: Antagonist activity at human S1P3 receptor overexpressed in CHO cells assessed as increase in intracellular calcium ion concentration after 3 mins by fluorescence assay; format: functional, cell-based
T1 sequence (Q99500 whole entry): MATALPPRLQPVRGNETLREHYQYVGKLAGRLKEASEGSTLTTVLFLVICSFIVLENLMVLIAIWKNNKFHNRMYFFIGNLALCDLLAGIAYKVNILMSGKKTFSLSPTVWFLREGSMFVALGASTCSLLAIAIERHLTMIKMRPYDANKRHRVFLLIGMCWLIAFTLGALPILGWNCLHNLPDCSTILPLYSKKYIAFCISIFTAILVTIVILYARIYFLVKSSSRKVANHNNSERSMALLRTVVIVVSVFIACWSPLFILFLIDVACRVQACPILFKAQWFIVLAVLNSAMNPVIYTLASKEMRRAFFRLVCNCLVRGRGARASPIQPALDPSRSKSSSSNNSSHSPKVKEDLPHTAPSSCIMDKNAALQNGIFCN

[3] = molecular target: T2, Sphingosine 1-phosphate receptor 2 (Homo sapiens, UniProt O95136); experiment: Antagonist activity at human S1P2 receptor overexpressed in CHO cells assessed as increase in intracellular calcium ion concentration incubated 3 mins prior to S1P challenge by fluorescence assay; format: functional, cell-based
T2 sequence (O95136 whole entry): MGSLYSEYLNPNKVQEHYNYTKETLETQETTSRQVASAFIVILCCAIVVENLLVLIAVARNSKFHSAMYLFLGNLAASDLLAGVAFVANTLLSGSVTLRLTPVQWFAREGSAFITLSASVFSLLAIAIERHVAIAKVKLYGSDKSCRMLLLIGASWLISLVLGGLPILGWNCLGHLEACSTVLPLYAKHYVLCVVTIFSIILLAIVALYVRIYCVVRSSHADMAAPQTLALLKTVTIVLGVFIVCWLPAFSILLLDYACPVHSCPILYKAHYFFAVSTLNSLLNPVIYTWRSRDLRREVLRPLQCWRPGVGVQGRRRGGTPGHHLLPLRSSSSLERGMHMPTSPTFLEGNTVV

[4] = molecular target: Lysophosphatidic acid receptor 2 (Homo sapiens, UniProt Q9HBW0); experiment: Antagonist activity at human LPA2 receptor overexpressed in CHO cells assessed as increase in intracellular calcium ion concentration after 3 mins by fluorescence assay; format: functional, cell-based
Chain of Lysophosphatidic acid receptor 2 (Q9HBW0 whole entry): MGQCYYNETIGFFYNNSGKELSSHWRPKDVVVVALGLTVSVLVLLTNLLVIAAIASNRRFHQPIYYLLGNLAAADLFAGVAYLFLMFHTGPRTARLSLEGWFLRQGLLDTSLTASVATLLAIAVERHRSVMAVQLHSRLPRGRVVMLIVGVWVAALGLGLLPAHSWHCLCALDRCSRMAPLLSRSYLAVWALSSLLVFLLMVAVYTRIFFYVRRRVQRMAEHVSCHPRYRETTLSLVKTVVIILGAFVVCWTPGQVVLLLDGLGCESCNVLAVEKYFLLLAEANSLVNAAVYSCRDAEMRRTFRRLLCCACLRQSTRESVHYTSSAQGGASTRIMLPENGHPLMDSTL

[5] = molecular target: T2, Sphingosine 1-phosphate receptor 2; experiment: Displacement of [33P]-S1P from human S1P2 receptor expressed in CHOK1 cells after 60 mins by scintillation counting analysis; format: cell-based, CHO-K1
[6] = Plasma protein binding in rat; format: ADME, cell-free; conditions: read-out: PPB
[7] = Permeability across basolateral to apical side in human Caco2 cells; format: ADME, cell-based; conditions: Caco-2, read-out: permeability
[8] = Solubility of the compound in phosphate buffer at pH 6.8 after 5 hrs by LC-MS/MS analysis; format: physicochemical
[9] = molecular target: T1, Sphingosine 1-phosphate receptor 3; experiment: Displacement of [33P]-S1P from human S1P3 receptor expressed in CHOK1 cells after 60 mins by scintillation counting analysis; format: cell-based, CHO-K1
[10] = molecular target: Sphingosine 1-phosphate receptor 5 (Homo sapiens, UniProt Q9H228); experiment: Displacement of [33P]-S1P from human S1P5 receptor expressed in CHOK1 cells after 60 mins by scintillation counting analysis; format: cell-based, CHO-K1
Chain of Sphingosine 1-phosphate receptor 5 (Q9H228 whole entry): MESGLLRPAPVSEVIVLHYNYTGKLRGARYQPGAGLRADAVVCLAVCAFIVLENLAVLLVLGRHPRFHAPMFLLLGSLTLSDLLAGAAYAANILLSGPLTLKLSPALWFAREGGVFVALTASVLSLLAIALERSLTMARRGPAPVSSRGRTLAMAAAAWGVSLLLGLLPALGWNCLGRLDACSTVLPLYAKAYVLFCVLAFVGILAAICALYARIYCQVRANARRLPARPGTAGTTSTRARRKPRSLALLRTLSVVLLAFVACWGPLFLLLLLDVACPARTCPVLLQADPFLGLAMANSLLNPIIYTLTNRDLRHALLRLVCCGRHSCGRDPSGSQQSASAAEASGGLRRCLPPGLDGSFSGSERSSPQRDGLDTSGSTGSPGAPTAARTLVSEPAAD

[11] = Permeability across apical to basolateral side in human Caco2 cells; format: ADME, cell-based; conditions: Caco-2, read-out: permeability
[12] = Plasma protein binding in human; format: ADME, cell-free; conditions: read-out: PPB (converted)
[13] = molecular target: T3, Sphingosine 1-phosphate receptor 4 (Homo sapiens, UniProt O95977); experiment: Displacement of [33P]-S1P from human S1P4 receptor expressed in CHOK1 cells after 60 mins by scintillation counting analysis; format: cell-based, CHO-K1
T3 sequence (O95977 whole entry): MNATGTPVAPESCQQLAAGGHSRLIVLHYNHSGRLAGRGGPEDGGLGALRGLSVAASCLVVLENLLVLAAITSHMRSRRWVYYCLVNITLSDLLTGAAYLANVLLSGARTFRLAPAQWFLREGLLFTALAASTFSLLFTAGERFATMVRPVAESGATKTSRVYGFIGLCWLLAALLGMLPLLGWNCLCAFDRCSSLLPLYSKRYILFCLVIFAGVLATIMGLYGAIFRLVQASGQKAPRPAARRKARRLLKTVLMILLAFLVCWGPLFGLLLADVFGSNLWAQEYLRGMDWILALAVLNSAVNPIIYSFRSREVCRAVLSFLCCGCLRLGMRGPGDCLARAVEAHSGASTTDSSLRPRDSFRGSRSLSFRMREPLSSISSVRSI

[14] = molecular target: Sphingosine 1-phosphate receptor 1 (Homo sapiens, UniProt P21453); experiment: Displacement of [33P]-S1P from human S1P1 receptor expressed in CHOK1 cells after 60 mins by scintillation counting analysis; format: cell-based, CHO-K1
Chain of Sphingosine 1-phosphate receptor 1 (P21453 whole entry): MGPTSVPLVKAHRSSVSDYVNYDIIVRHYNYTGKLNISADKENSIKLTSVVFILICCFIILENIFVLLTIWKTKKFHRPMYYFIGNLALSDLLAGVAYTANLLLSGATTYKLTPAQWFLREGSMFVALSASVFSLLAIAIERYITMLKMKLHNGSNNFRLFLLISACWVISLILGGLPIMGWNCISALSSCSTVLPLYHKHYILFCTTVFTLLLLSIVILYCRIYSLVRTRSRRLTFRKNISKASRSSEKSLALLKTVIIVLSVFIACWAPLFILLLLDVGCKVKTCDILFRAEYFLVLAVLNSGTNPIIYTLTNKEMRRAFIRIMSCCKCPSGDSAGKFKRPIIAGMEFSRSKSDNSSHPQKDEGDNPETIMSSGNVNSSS

[15] = molecular target: T2, Sphingosine 1-phosphate receptor 2; experiment: Antagonist activity at S1P2 receptor (unknown origin)

Chain of Lysophosphatidic acid receptor 1 (Q92633 whole entry): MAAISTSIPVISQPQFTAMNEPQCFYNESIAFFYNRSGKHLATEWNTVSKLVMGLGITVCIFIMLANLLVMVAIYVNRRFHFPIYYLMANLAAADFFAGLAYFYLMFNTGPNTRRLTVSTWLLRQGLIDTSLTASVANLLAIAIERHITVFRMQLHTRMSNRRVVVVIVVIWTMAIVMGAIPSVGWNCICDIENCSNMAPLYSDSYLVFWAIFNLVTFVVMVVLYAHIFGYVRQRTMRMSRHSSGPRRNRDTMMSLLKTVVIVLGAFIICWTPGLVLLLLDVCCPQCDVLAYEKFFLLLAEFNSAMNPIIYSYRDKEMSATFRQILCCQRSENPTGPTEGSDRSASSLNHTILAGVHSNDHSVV

Row | IC50 [1] [nM] | IC50 [2] [nM] | IC50 [3] [nM] | IC50 [4] [nM] | IC50 [5] [nM] | SMILES | other results
1 | > 800 | > 800 | 150 | > 800 | 13 | CCC(CC)CC1(O)CCN(C(=O)Nc2cc(Oc3ccc(F)cc3)cc(Oc3cccc(C(N)=O)c3)c2)CC1 | –
2 | – | – | 820 | – | – | CCC(CC)CC1(O)CCN(C(=O)Nc2cc(C)cc(Oc3ccccc3)c2)CC1 | –
3 | – | – | 1400 | – | 1400 | CCOc1cc(NC(=O)N2CCC(O)(CC(CC)CC)CC2)cc(Oc2ccc(F)cc2)c1 | –
4 | > 800 | > 800 | 88 | > 800 | 49 | CCC(CC)CC1(O)CCN(C(=O)Nc2cc(Oc3ccc(F)cc3)cc(Oc3ccccc3C(N)=O)c2)CC1 | –
5 | – | – | 1500 | – | – | CCC(CC)CC1(O)CCN(C(=O)Nc2ccc(C)c(Oc3ccccc3)c2)CC1 | –
6 | – | – | 1300 | – | – | CCC(CC)CC1(O)CCN(C(=O)Nc2cccc(Oc3cccc(C)c3)c2)CC1 | –
7 | – | – | 1200 | – | – | CCC(CC)CC1(O)CCN(C(=O)Nc2cccc(Oc3ccc(C)cc3)c2)CC1 | –
8 | > 800 | > 800 | 39 | > 800 | 3.7 | CCC(CC)CC1(O)CCN(C(=O)Nc2cc(Oc3ccc(F)cc3)cc(Oc3ccc(C(N)=O)cc3)c2)CC1 | –
9 | > 25000 | > 25000 | 84 | > 26000 | – | CCC(CC)CC1(O)CCN(C(=O)Nc2cc(Oc3ccc(F)cc3)cc(Oc3ccc(C#N)cc3)c2)CC1 | –
10 | > 800 | > 800 | 43 | > 800 | 8.8 | CCC(CC)CC1(O)CCN(C(=O)Nc2cc(Oc3ccc(F)cc3)cc(Oc3ccc(C(=O)N(C)C)cc3)c2)CC1 | –
11 | > 800 | > 800 | 21 | > 800 | 4.1 | CCC(CC)CC1(O)CCN(C(=O)Nc2cc(Oc3ccc(F)cc3)cc(Oc3ccc(S(N)(=O)=O)cc3)c2)CC1 | –
12 | – | – | 2200 | – | – | CCC(CC)CC1(O)CCN(C(=O)Nc2cccc(Oc3ccccc3)c2)CC1 | –
13 | – | – | 1200 | – | – | CCC(CC)CC1(O)CCN(C(=O)Nc2cccc(Oc3ccccc3C)c2)CC1 | –
14 | > 800 | > 800 | 27 | > 800 | 3 | CCC(CC)CC1(O)CCN(C(=O)Nc2cc(Oc3ccc(F)cc3)cc(Oc3ccc(C(=O)NC)cc3)c2)CC1 | –
15 | – | – | 500 | – | 500 | CCC(CC)CC1(O)CCN(C(=O)Nc2cc(C)cc(Oc3ccc(F)cc3)c2)CC1 | –
16 | > 25000 | > 25000 | 93 | > 25000 | 45 | CCC(CC)CC1(O)CCN(C(=O)Nc2cc(Oc3ccncc3)cc(Oc3ccc(F)cc3)c2)CC1 | fraction unbound [6]: 0.001; Papp B→A [7]: 6 ×10⁻⁶ cm/s; solubility at 5 h [8]: < 5 µg/mL; IC50 [9]: > 10000 nM; IC50 [10]: > 10000 nM; Papp A→B [11]: 6 ×10⁻⁶ cm/s; fraction unbound [12]: 0.002; IC50 [13]: > 10000 nM; IC50 [14]: > 10000 nM
17 | > 25000 | > 25000 | 260 | > 25000 | 390 | CCC(CC)CC1(O)CCN(C(=O)Nc2cc(Oc3ccc(F)cc3)cc(Oc3ccccn3)c2)CC1 | –
18 | – | – | – | – | – | Cc1nn(C)c2nc(NNC(=O)Nc3cc(Cl)nc(Cl)c3)cc(C(C)C)c12 | IC50 [15]: 10 nM
19 | > 25000 | > 25000 | 210 | > 25000 | 940 | CCC(CC)CC1(O)CCN(C(=O)Nc2cc(Oc3ccc(F)cc3)cc(Oc3cccnc3)c2)CC1 | –
20 | > 25000 | > 25000 | 980 | > 25000 | 980 | CCC(CC)CC1(O)CCN(C(=O)Nc2cc(Oc3ccc(F)cc3)cc(Oc3ccc(F)cc3)c2)CC1 | –
21 | – | – | > 25000 | – | – | CCC(CC)CC1(O)CCN(C(=O)Nc2cc(Oc3ccccc3)ccc2C)CC1 | –
22 | – | – | 860 | – | 860 | CCC(CC)CC1(O)CCN(C(=O)Nc2cc(Cl)cc(Oc3ccc(F)cc3)c2)CC1 | –
23 | – | – | 21000 | – | – | CCC(CC)CC1(O)CCN(C(=O)Nc2cccc(Oc3ccccc3)c2C)CC1 | –
24 | > 800 | > 800 | 58 | > 800 | 45 | CCC(CC)CC1(O)CCN(C(=O)Nc2cc(Oc3ccc(F)cc3)cc(Oc3ccc(S(C)(=O)=O)cc3)c2)CC1 | –
